Assay results taken from publication PMC4351150 (Cancer immunology research, 2015).
Where “and” joins values, the source holds several entries; their conditions need not be identical. Equal entries are not always repeated.

Tests used:
[1] = system: CD8^+ TCRβ repertoire of Patient 5; assay: Bulk TCRβ repertoire sequencing: mapping of tetramer-associated TCRβ clonotypes; parameters: species or system human; conditions: for total share of tetramer-associated TCRβ clonotypes in TCRβ repertoire: Patient 5, sample 2 months later, 3×10^6 CD8^+ cells, Illumina HiSeq
[2] = target: HLA-A*02:01 (Homo sapiens, UniProt P04439, D140Y/D185E/D98H/E176V/E277Q/G131W/G231S/I119V/I121R/I166T/I218V/L300P/L318F/N151K/N90K/P208A/P217A/Q86G/Q94H/R138H/R169H/T345S); assay: iTopia binding affinity assay
[3] = system: CD8^+ cells; assay type: cell-based; conditions: UNC-CDK4-1-pulsed T2 cells as stimulators; % of CD8^+ cells (Supplementary Figure 1)
[4] = system: CD8^+ T cells of HLA-A*02:01-expressing post-SCT AML patients; assay: PE-peptide/HLA-A*02:01 tetramer flow cytometry of post-SCT AML patient PBMCs; assay type: cell-based

| Sequence | total share of tetramer-associated TCRβ clonotypes in TCRβ repertoire [1] | binding affinity to HLA-A*02:01 [2] | CD8^+ cells specific for UNC-CDK4-1 [3] | tetramer frequency, % of CD8^+ cells (positive patients) ([4]; 3 of 6 post-SCT AML patients, PE-UNC-CDK4-1/HLA-A*02:01 tetramer, 4°C, 25 minutes, threshold >0.01%) | tetramer^+ T-cell population frequency in Patient 5 ([4]; Patient 5, day +567 post-SCT, CMV seropositive, not viremic) | mean enrichment ratio of tetramer-associated clonotypes ([1]; clonotype frequency in tetramer^+ gate / clonotype frequency in bulk repertoire, Patient 5, t-test p < 0.0001 between antigens) |
| --- | --- | --- | --- | --- | --- | --- |
| NLVPMVATV [pp65NLV, reference compound] | 0.002% |  |  |  |  |  |
| ALTPVVVTL [UNC-CDK4-1] | > 17% and 17.1% | high affinity to HLA-A*02:01 | 0.2% | > 0.01% | 0.04% | 1.04×10^1 |
